Measured values from patent US10563263B2, “Genetic polymorphisms associated with statin response and cardiovascular diseases, methods of detection and uses thereof” (CELERA CORPORATION, priority 2010, dated 2020).

Test system: CHD
Assay: Meta-analysis of CARE and WOSCOPS combined, synergy index, CHD endpoint
Format: in vivo, human
From the text: Tables 4-5 provide meta-analyses of CARE and WOSCOPS combined (2nd section of each table) for two endpoints (CHD and CVD) and three genetic models (dominant, recessive, and additive), as well as logistic regression analyses of CARE (3rd section of each table) and WOSCOPS (4th section of each table) individually.
Tables 12 and 17 provide results of meta-analysis of the CARE and WOSCOPS sample sets combined by direct genotyping and by imputing genotypes.
“P” indicates the p-value, and “P(R)” (or “P.R.”) indicates the p-value random effect. Both of these are p-values corresponding to a statistical test of whether the combined synergy index is equal to one but use different assumptions to derive the p-value. “P” is calculated using a fixed effects model, and “P(R)” is calculated using a random effects model.
“OR” indicates the odds ratio (synergy index) calculated from a fixed effects model, and “OR(R)” (or “OR.R.”) indicates the odds ratio (synergy index) calculated from a random effects model.

[1] = SNP rs1321432, allele (A1) A, RECESSIVE, Imputed
[2] = SNP rs1321457, allele (A1) G, RECESSIVE, Imputed
[3] = SNP rs1336382, allele (A1) T, DOMINANT, Imputed
[4] = SNP rs1336383, allele (A1) T, DOMINANT, Imputed
[5] = SNP rs1336407, allele (A1) T, DOMINANT, Imputed
[6] = SNP rs1336409, allele (A1) T, DOMINANT, Imputed
[7] = SNP rs1336596, allele (A1) A, DOMINANT, Imputed
[8] = SNP rs1343560, allele (A1) T, ADDITIVE, Imputed
[9] = SNP rs1343560, allele (A1) T, DOMINANT, Imputed
[10] = SNP rs1361987, allele (A1) T, GENOTYPIC, Imputed
[11] = SNP rs12923993, allele (A1) C, DOMINANT, Imputed
[12] = SNP rs12936964, allele (A1) T, DOMINANT, Imputed
[13] = SNP rs12960663, allele (A1) G, ADDITIVE, Imputed
[14] = SNP rs13038146, allele (A1) C, ADDITIVE, Imputed
[15] = SNP rs13038146, allele (A1) C, GENOTYPIC, Imputed
[16] = SNP rs13134222, allele (A1) A, GENOTYPIC, Imputed
[17] = SNP rs13172910, allele (A1) A, DOMINANT, Imputed
[18] = SNP rs13194907, allele (A1) A, ADDITIVE, Imputed
[19] = SNP rs13194907, allele (A1) A, DOMINANT, Imputed
[20] = SNP rs13195745, allele (A1) A, ADDITIVE, Imputed
[21] = SNP rs13195745, allele (A1) A, DOMINANT, Imputed
[22] = SNP rs13265054, allele (A1) T, DOMINANT, Imputed
[23] = SNP rs13282131, allele (A1) C, GENOTYPIC, Imputed
[24] = SNP rs13353526, allele (A1) C, DOMINANT, Imputed
[25] = rs1003148 allele C RECESSIVE Imputed
[26] = rs1008705 allele C DOMINANT Imputed
[27] = rs1149350 allele A DOMINANT Imputed
[28] = rs1150143 allele G DOMINANT Imputed
[29] = rs1204522 allele C GENOTYPIC Imputed
[30] = rs1204524 allele A GENOTYPIC Imputed
[31] = rs1232298 allele G RECESSIVE Imputed
[32] = rs1247340 allele C DOMINANT Imputed
[33] = rs1247341 allele C DOMINANT Imputed
[34] = rs10046799 allele C ADDITIVE Imputed
[35] = rs10046799 allele C GENOTYPIC Imputed
[36] = rs10051148 allele C DOMINANT Imputed
[37] = rs10054055 allele T DOMINANT Imputed

Compound: CC[C@H](C)C(=O)O[C@H]1C[C@H](O)C=C2C=C[C@H](C)[C@H](CC[C@@H](O)C[C@@H](O)CC(=O)O)[C@H]21 [Pravastatin, pravastatin]
- OR [1]: 2.1221
- OR(R) [1]: 2.1221
- OR [2]: 2.0656
- OR(R) [2]: 2.0656
- OR [3]: 1.6135
- OR(R) [3]: 1.6135
- OR [4]: 1.6135
- OR(R) [4]: 1.6135
- OR [5]: 1.6135
- OR(R) [5]: 1.6135
- OR [6]: 1.6085
- OR(R) [6]: 1.6059
- OR [7]: 0.5951
- OR(R) [7]: 0.5951
- OR [8]: 0.5393
- OR(R) [8]: 0.5393
- OR [9]: 0.5034
- OR(R) [9]: 0.5034
- OR [10]: 0.4404
- OR(R) [10]: 0.4404
- OR [11]: 1.4572
- OR(R) [11]: 1.4572
- OR [12]: 1.6688
- OR(R) [12]: 1.6688
- OR [13]: 0.6241
- OR(R) [13]: 0.6241
- OR [14]: 1.3708
- OR(R) [14]: 1.3708
- OR [15]: 1.9308
- OR(R) [15]: 1.9308
- OR [16]: 0.3011
- OR(R) [16]: 0.3011
- OR [17]: 0.6547
- OR(R) [17]: 0.6547
- OR [18]: 2.303
- OR(R) [18]: 2.303
- OR [19]: 2.505
- OR(R) [19]: 2.505
- OR [20]: 2.303
- OR(R) [20]: 2.303
- OR [21]: 2.505
- OR(R) [21]: 2.505
- OR [22]: 0.6144
- OR(R) [22]: 0.6144
- OR [23]: 1.8412
- OR(R) [23]: 1.8412
- OR [24]: 1.9371
- OR(R) [24]: 1.9371
- Meta-analysis OR (rs1948 allele A vs G (ref)): 1.66
- Meta-analysis OR (rs151806 allele G vs A (ref)): 0.63
- Meta-analysis OR (rs205279 allele A vs G (ref)): 1.81
- Meta-analysis OR (rs238272 allele A vs G (ref)): 1.45
- Meta-analysis OR (rs312929 allele G vs A (ref)): 0.75
- Meta-analysis OR (rs316720 allele G vs A (ref)): 0.71
- Meta-analysis OR (rs331555 allele A vs C (ref)): 0.74
- Meta-analysis OR (rs354342 allele A vs G (ref)): 0.67
- Meta-analysis OR (rs453625, allele A1 A (non-ref), A2 G (ref), endpoint/model not given): 0.62
- Meta-analysis OR (rs610118 allele G vs A (ref)): 0.49
- Meta-analysis OR (rs669684 allele G vs A (ref)): 0.72
- Meta-analysis OR (rs842796 allele A vs G (ref)): 1.59
- Meta-analysis OR (rs886469 allele G vs A (ref)): 0.64
- Meta-analysis OR (rs969356 allele G vs A (ref)): 0.63
- OR [25]: 0.5819
- OR(R) [25]: 0.5829
- OR [26]: 1.4761
- OR(R) [26]: 1.4761
- Meta-analysis OR (rs1035618 allele A vs C (ref)): 1.42
- Meta-analysis OR (rs1076733, allele A1 A (non-ref), A2 G (ref), endpoint/model not given): 0.67
- OR [27]: 1.6713
- OR(R) [27]: 1.6713
- OR [28]: 1.6852
- OR(R) [28]: 1.6852
- Meta-analysis OR (rs1182878, allele A1 A (non-ref), A2 G (ref), endpoint/model not given): 0.78
- OR [29]: 0.4353
- OR(R) [29]: 0.4353
- OR [30]: 0.4351
- OR(R) [30]: 0.4351
- OR [31]: 2.0566
- OR(R) [31]: 2.0955
- OR [32]: 1.6742
- OR(R) [32]: 1.6742
- OR [33]: 1.684
- OR(R) [33]: 1.684
- Meta-analysis OR (rs1343563 allele C vs A (ref)): 0.60
- Meta-analysis OR (rs1349282 allele A vs G (ref)): 0.55
- Meta-analysis OR (rs1382787 allele G vs A (ref)): 1.35
- Meta-analysis OR (rs1474396, allele A1 A (non-ref), A2 C (ref), endpoint/model not given): 1.46
- Meta-analysis OR (rs1615197 allele G vs A (ref)): 1.80
- Meta-analysis OR (rs1884897 allele A vs G (ref)): 2.07
- Meta-analysis OR (rs2008165 allele G vs A (ref)): 0.59
- Meta-analysis OR (rs2023650 allele A vs G (ref)): 0.71
- Meta-analysis OR (rs2060411 allele A vs G (ref)): 1.39
- Meta-analysis OR (rs2104506 allele A vs C (ref)): 0.71
- Meta-analysis OR (rs2129571, allele A1 A (non-ref), A2 G (ref), endpoint/model not given): 0.53
- Meta-analysis OR (rs2145540 allele A vs G (ref)): 0.56
- Meta-analysis OR (rs2268650 allele A vs G (ref)): 0.66
- Meta-analysis OR (rs2273816 allele A vs G (ref)): 1.61
- Meta-analysis OR (rs2290193, allele A1 C (non-ref), A2 A (ref), endpoint/model not given): 0.47
- Meta-analysis OR (rs2376764 allele A vs G (ref)): 0.56
- Meta-analysis OR (rs2418412 allele G vs A (ref)): 1.94
- Meta-analysis OR (rs2483641, allele A1 A (non-ref), A2 G (ref), endpoint/model not given): 0.59
- Meta-analysis OR (rs2534752 allele G vs A (ref)): 1.65
- Meta-analysis OR (rs2626130 allele G vs A (ref)): 1.32
- Meta-analysis OR (rs2695026 allele A vs G (ref)): 0.67
- Meta-analysis OR (rs2793086 allele C vs A (ref)): 0.65
- Meta-analysis OR (rs2941528 allele A vs G (ref)): 0.67
- Meta-analysis OR (rs3000490 allele G vs A (ref)): 1.38
- Meta-analysis OR (rs3213616 allele A vs G (ref)): 0.62
- Meta-analysis OR (rs3732788 allele G vs A (ref)): 0.51
- Meta-analysis OR (rs3798544 allele A vs G (ref)): 1.57
- Meta-analysis OR (rs3998860 allele A vs G (ref)): 0.61
- Meta-analysis OR (rs4289236 allele A vs G (ref)): 1.41
- Meta-analysis OR (rs4611134 allele A vs G (ref)): 1.55
- Meta-analysis OR (rs4643388 allele G vs A (ref)): 1.34
- Meta-analysis OR (rs4682522 allele C vs A (ref)): 0.55
- Meta-analysis OR (rs4830819 allele G vs A (ref)): 0.60
- Meta-analysis OR (rs4869033 allele G vs A (ref)): 0.36
- Meta-analysis OR (rs4924215 allele A vs G (ref)): 1.65
- Meta-analysis OR (rs4986146 allele A vs G (ref)): 0.63
- Meta-analysis OR (rs4993917 allele A vs C (ref)): 0.60
- Meta-analysis OR (rs5017584 allele A vs G (ref)): 1.74
- Meta-analysis OR (rs6075209 allele A vs G (ref)): 0.64
- Meta-analysis OR (rs6080603 allele A vs C (ref)): 0.62
- Meta-analysis OR (rs6491586 allele G vs A (ref)): 1.65
- Meta-analysis OR (rs6505669 allele G vs A (ref)): 1.58
- Meta-analysis OR (rs6911817, allele A1 A (non-ref), A2 G (ref), endpoint/model not given): 2.85
- Meta-analysis OR (rs7094941, allele A1 G (non-ref), A2 A (ref), endpoint/model not given): 0.74
- Meta-analysis OR (rs7179134 allele A vs G (ref)): 3.52
- Meta-analysis OR (rs7193741 allele A vs C (ref)): 2.04
- Meta-analysis OR (rs7327364 allele A vs G (ref)): 0.68
- Meta-analysis OR (rs7497613, allele A1 A (non-ref), A2 G (ref), endpoint/model not given): 0.55
- Meta-analysis OR (rs7616936, allele A1 C (non-ref), A2 A (ref), endpoint/model not given): 1.77
- Meta-analysis OR (rs7705993 allele G vs A (ref)): 1.48
- Meta-analysis OR (rs7767024, allele A1 A (non-ref), A2 G (ref), endpoint/model not given): 1.42
- Meta-analysis OR (rs7910196, allele A1 G (non-ref), A2 A (ref), endpoint/model not given): 1.47
- Meta-analysis OR (rs8051893 allele A vs G (ref)): 0.67
- Meta-analysis OR (rs8109631 allele A vs G (ref)): 1.53
- Meta-analysis OR (rs9375683 allele G vs A (ref)): 1.49
- Meta-analysis OR (rs9436636 allele A vs G (ref)): 1.35
- Meta-analysis OR (rs9446187 allele A vs G (ref)): 1.96
- Meta-analysis OR (rs9658127, allele A1 A (non-ref), A2 G (ref), endpoint/model not given): 2.79
- OR [34]: 0.724
- OR(R) [34]: 0.7134
- OR [35]: 0.5342
- OR(R) [35]: 0.5221
- OR [36]: 0.5783
- OR(R) [36]: 0.5783
- OR [37]: 0.5791
- OR(R) [37]: 0.5791
- OR (rs10067895 allele A DOMINANT Imputed): 0.5759
